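Dose response: 5 concentrations. Exposure: 48 h. Format: 96-well plates. Endpoint: linear interpolation; highest concentration if not reached. TGI denotes the concentration required for complete inhibition of growth.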
Tests used:
Assay in all cases: NCI anticancer screen, dose series, 48 h
RXF 393 renal = tested on: RXF 393 renal
OVCAR-8 ovarian = tested on: OVCAR-8 ovarian
NCI-H226 lung = tested on: NCI-H226 lung
BT-549 breast = tested on: BT-549 breast
CCRF-CEM leukemia = tested on: CCRF-CEM leukemia
COLO 205 colon = tested on: COLO 205 colon
K-562 leukemia = tested on: K-562 leukemia
NCI-H522 lung = tested on: NCI-H522 lung
HOP-92 NSCLC = tested on: HOP-92 NSCLC
MDA-MB-231 breast = tested on: MDA-MB-231 breast
IGROV1 ovarian = tested on: IGROV1 ovarian
SK-MEL-2 melanoma = tested on: SK-MEL-2 melanoma
SW-620 colon = tested on: SW-620 colon
ACHN renal = tested on: ACHN renal
EKVX NSCLC = tested on: EKVX NSCLC
SNB-19 CNS = tested on: SNB-19 CNS
SK-OV-3 ovarian = tested on: SK-OV-3 ovarian
CAKI-1 renal = tested on: CAKI-1 renal
DU-145 prostate = tested on: DU-145 prostate
MALME-3M melanoma = tested on: MALME-3M melanoma
LOX IMVI melanoma = tested on: LOX IMVI melanoma
SN12C renal = tested on: SN12C renal
HT29 colon = tested on: HT29 colon
786-0 renal = tested on: 786-0 renal
MDA-N = tested on: MDA-N
UACC-257 melanoma = tested on: UACC-257 melanoma
OVCAR-3 ovarian = tested on: OVCAR-3 ovarian
HOP-62 NSCLC = tested on: HOP-62 NSCLC
MCF7 breast = tested on: MCF7 breast
SK-MEL-28 melanoma = tested on: SK-MEL-28 melanoma
T-47D breast = tested on: T-47D breast
A498 renal = tested on: A498 renal
MOLT-4 leukemia = tested on: MOLT-4 leukemia
TK-10 renal = tested on: TK-10 renal
SF-268 CNS = tested on: SF-268 CNS
OVCAR-5 ovarian = tested on: OVCAR-5 ovarian
UACC-62 melanoma = tested on: UACC-62 melanoma
SF-295 CNS = tested on: SF-295 CNS
U251 CNS = tested on: U251 CNS
RPMI-8226 leukemia = tested on: RPMI-8226 leukemia
M14 melanoma = tested on: M14 melanoma
HCT-116 colon = tested on: HCT-116 colon
HS 578T breast = tested on: HS 578T breast
OVCAR-4 ovarian = tested on: OVCAR-4 ovarian
NCI/ADR-RES ovarian = tested on: NCI/ADR-RES ovarian
NCI-H460 lung = tested on: NCI-H460 lung
SF-539 CNS = tested on: SF-539 CNS
UO-31 renal = tested on: UO-31 renal
PC-3 prostate = tested on: PC-3 prostate
KM12 colon = tested on: KM12 colon
A549 NSCLC = tested on: A549 NSCLC
MDA-MB-435 = tested on: MDA-MB-435
HCT-15 colon = tested on: HCT-15 colon
SK-MEL-5 melanoma = tested on: SK-MEL-5 melanoma
SNB-75 CNS = tested on: SNB-75 CNS
NCI-H23 lung = tested on: NCI-H23 lung
HCC-2998 colon = tested on: HCC-2998 colon
HL-60(TB) leukemia = tested on: HL-60(TB) leukemia

Structure (SMILES): CC(=O)c1ccc(O)c(CN(C2CCCCC2)C2CCCCC2)c1O
- TGI (RXF 393 renal): > 100 µM
- TGI (OVCAR-8 ovarian): > 100 µM
- TGI (NCI-H226 lung): > 100 µM
- TGI (BT-549 breast): > 100 µM
- TGI (CCRF-CEM leukemia): 1.88 µM
- TGI (COLO 205 colon): > 100 µM
- TGI (K-562 leukemia): > 100 µM
- TGI (NCI-H522 lung): > 100 µM
- TGI (HOP-92 NSCLC): > 100 µM
- TGI (MDA-MB-231 breast): > 100 µM
- TGI (IGROV1 ovarian): > 100 µM
- TGI (SK-MEL-2 melanoma): > 100 µM
- TGI (SW-620 colon): > 100 µM
- TGI (ACHN renal): > 100 µM
- TGI (EKVX NSCLC): > 100 µM
- TGI (SNB-19 CNS): > 100 µM
- TGI (SK-OV-3 ovarian): > 100 µM
- TGI (CAKI-1 renal): > 100 µM
- TGI (DU-145 prostate): > 100 µM
- TGI (MALME-3M melanoma): > 100 µM
- TGI (LOX IMVI melanoma): > 100 µM
- TGI (SN12C renal): > 100 µM
- TGI (HT29 colon): > 100 µM
- TGI (786-0 renal): > 100 µM
- TGI (MDA-N): > 100 µM
- TGI (UACC-257 melanoma): > 100 µM
- TGI (OVCAR-3 ovarian): > 100 µM
- TGI (HOP-62 NSCLC): > 100 µM
- TGI (MCF7 breast): > 100 µM
- TGI (SK-MEL-28 melanoma): > 100 µM
- TGI (T-47D breast): > 100 µM
- TGI (A498 renal): > 100 µM
- TGI (MOLT-4 leukemia): > 100 µM
- TGI (TK-10 renal): > 100 µM
- TGI (SF-268 CNS): > 100 µM
- TGI (OVCAR-5 ovarian): > 100 µM
- TGI (UACC-62 melanoma): > 100 µM
- TGI (SF-295 CNS): > 100 µM
- TGI (U251 CNS): > 100 µM
- TGI (RPMI-8226 leukemia): > 100 µM
- TGI (M14 melanoma): > 100 µM
- TGI (HCT-116 colon): > 100 µM
- TGI (HS 578T breast): > 100 µM
- TGI (OVCAR-4 ovarian): > 100 µM
- TGI (NCI/ADR-RES ovarian): > 100 µM
- TGI (NCI-H460 lung): > 100 µM
- TGI (SF-539 CNS): > 100 µM
- TGI (UO-31 renal): > 100 µM
- TGI (PC-3 prostate): > 100 µM
- TGI (KM12 colon): > 100 µM
- TGI (A549 NSCLC): > 100 µM
- TGI (MDA-MB-435): > 100 µM
- TGI (HCT-15 colon): > 100 µM
- TGI (SK-MEL-5 melanoma): > 100 µM
- TGI (SNB-75 CNS): > 100 µM
- TGI (NCI-H23 lung): > 100 µM

Structure (SMILES): CCOC(=O)c1nnsc1NN
- TGI (RXF 393 renal): > 100 µM
- TGI (OVCAR-8 ovarian): > 100 µM
- TGI (NCI-H226 lung): > 100 µM
- TGI (BT-549 breast): > 100 µM
- TGI (CCRF-CEM leukemia): > 100 µM
- TGI (COLO 205 colon): > 100 µM
- TGI (NCI-H522 lung): > 100 µM
- TGI (HOP-92 NSCLC): > 100 µM
- TGI (MDA-MB-231 breast): > 100 µM
- TGI (IGROV1 ovarian): > 100 µM
- TGI (SK-MEL-2 melanoma): > 100 µM
- TGI (SW-620 colon): > 100 µM
- TGI (ACHN renal): > 100 µM
- TGI (EKVX NSCLC): > 100 µM
- TGI (SNB-19 CNS): > 100 µM
- TGI (SK-OV-3 ovarian): > 100 µM
- TGI (CAKI-1 renal): > 100 µM
- TGI (DU-145 prostate): > 100 µM
- TGI (LOX IMVI melanoma): > 100 µM
- TGI (SN12C renal): > 100 µM
- TGI (HT29 colon): > 100 µM
- TGI (HCC-2998 colon): > 100 µM
- TGI (786-0 renal): > 100 µM
- TGI (MDA-N): > 100 µM
- TGI (UACC-257 melanoma): > 100 µM
- TGI (OVCAR-3 ovarian): > 100 µM
- TGI (HOP-62 NSCLC): > 100 µM
- TGI (MCF7 breast): > 100 µM
- TGI (SK-MEL-28 melanoma): > 100 µM
- TGI (MOLT-4 leukemia): > 100 µM
- TGI (TK-10 renal): > 100 µM
- TGI (SF-268 CNS): > 100 µM
- TGI (OVCAR-5 ovarian): > 100 µM
- TGI (UACC-62 melanoma): > 100 µM
- TGI (SF-295 CNS): > 100 µM
- TGI (U251 CNS): > 100 µM
- TGI (M14 melanoma): > 100 µM
- TGI (HCT-116 colon): > 100 µM
- TGI (HS 578T breast): > 100 µM
- TGI (OVCAR-4 ovarian): > 100 µM
- TGI (NCI/ADR-RES ovarian): > 100 µM
- TGI (NCI-H460 lung): > 100 µM
- TGI (SF-539 CNS): > 100 µM
- TGI (UO-31 renal): > 100 µM
- TGI (PC-3 prostate): > 100 µM
- TGI (KM12 colon): > 100 µM
- TGI (HL-60(TB) leukemia): > 100 µM
- TGI (A549 NSCLC): > 100 µM
- TGI (MDA-MB-435): > 100 µM
- TGI (HCT-15 colon): > 100 µM
- TGI (SK-MEL-5 melanoma): > 100 µM
- TGI (SNB-75 CNS): > 100 µM
- TGI (NCI-H23 lung): > 100 µM

Source: PubChem BioAssay (NCI)
